Experimental data from patent publication US4235886A, “Cyclic hexapeptide somatostatin analogs” (Merck & Co., Inc., priority 1979, dated 1980).
Non-standard residues stand in square brackets, D forms with d. Residues, ends and D or L forms follow the SMILES beside them. dTrp(5-F) = N[C@H](Cc1c[nH]c2ccc(F)cc12)C(=O)O; Orn = NCCC[C@H](N)C(=O)O; Abu = CC[C@H](N)C(=O)O

Assays:
[1] = tested on: Rat pituitaries (growth hormone release); test: In vitro inhibition of growth hormone release from cultured rat pituitary cells; assay type: cell-based; details: multiples or fractions of the effect of somatostatin (= 1), fiducial limits in parentheses, 4 hours incubation, radioimmunoassay
Protocol: The instant cyclic hexapeptide analogs of somatostatin are tested and compared with the effects of somatostatin in an in vitro test for the inhibition of growth hormone. The test is described as follows:
"Rat pituitaries were isolated according to the procedures of Vale and Grant "In vitro Pituitary Hormone Secretion Assay for Hypophysiotropic Substances" in Methods in Enzymology. Vol. XXXVII, eds. O'Malley, B. W. and Hardman, J. G. (Academic Press, Inc., New York) pp. 5-93 (1975).
After 4 days in culture, the cells were washed and incubated for 4 hours in Dulbecco-modified Eagle's medium in the presence or absence of graded doses of each analog or somatostatin. The medium was then collected for subsequent growth hormone determination by a double antibody radioimmunoassay for rat growth hormone."
The test results for some of the compounds of this invention are recorded below with the results for somatostatin listed first and given the arbitrary value of 1. The results for the instant compounds are given as multiples or fractions of the effect of somatostatin. The numbers in parentheses are the fiducial limits for the number preceding. The first of the instant compounds listed is the compound prepared in Example 1-5. The compound is written slightly different, however, to conform to the order of the amino acids found in somatostatin.

[2] = tested on: pentagastrin evoked gastric secretion in the chronic fistula dog; test: Inhibition of pentagastrin evoked gastric secretion in the chronic fistula dog; assay type: in vivo; details: dose 0.8 μg/ml./min., infusion 0-60 min, pentagastrin 2.5 μg./kg./hour i.v., relative to placebo trial; for Gastric Secretion % Inhibition, Acid Concentration, 0-30 / Gastric Secretion % Inhibition, Vol., 0-30: 0-30 min; for Gastric Secretion % Inhibition, Acid Concentration, 30-60 / Gastric Secretion % Inhibition, Vol., 30-60: 30-60 min; for Gastric Secretion % Inhibition, Acid Concentration, 60-90 / Gastric Secretion % Inhibition, Vol., 60-90: 60-90 min; for Gastric Secretion % Inhibition, Acid Concentration, 90-120 / Gastric Secretion % Inhibition, Vol., 90-120: 90-120 min; for Gastric Secretion % Inhibition, Vol., 0-30 / Gastric Secretion % Inhibition, Vol., 30-60 / Gastric Secretion % Inhibition, Vol., 60-90 / Gastric Secretion % Inhibition, Vol., 90-120: volume
Protocol: The effects of the instant cyclichexapeptide analogs of somatostatin are determined by the following procedure.
Compounds were tested for their ability to inhibit pentagastrin evoked gastric secretion in the chronic fistula dog. Female beagle dogs with a chronic gastric fistula were given pentagastrin (2.5 μg./kg./hour, i.v. from -60 to 120 min.) and gastric outputs were collected via the fistula cannula. Samples were analyzed at 30 minute intervals for volume (ml.) and titratable acid (mEq/L) (Titration to pH 7 with 0.01 N NaOH); total acid output (mEq) was calculated as the production of output volume and acid concentration. Test compounds were infused at a constant rate from 0 to 60 minutes. Data have been expressed as percent change of total acid output relative to a placebo trial in the same animals.

## C[C@@H]1NC(=O)[C@@H]2CCCN2C(=O)[C@H](Cc2ccccc2)NC(=O)[C@H]([C@@H](C)O)NC(=O)[C@H](CCCCN)NC(=O)[C@@H](Cc2c[nH]c3ccccc23)NC1=O [Cyclo(Pro-Ala-d-Trp-Lys-Thr-Phe)] (cyclo(A[dW]KTFP))
[1]
  Growth Hormone Release Inhibition In Vitro: 0.19 (0.1-0.38)

## C[C@@H](O)[C@@H]1NC(=O)[C@H](CCCCN)NC(=O)[C@H](Cc2c[nH]c3ccccc23)NC(=O)[C@H](Cc2ccccc2)NC(=O)[C@@H]2CCCN2C(=O)[C@H](Cc2ccccc2)NC1=O [Cyclo(Pro-Phe-L-Trp-Lys-Thr-Phe)] (cyclo(FPFWKT))
[1]
  Growth Hormone Release Inhibition In Vitro: 1.59 (1.33-1.92)

## C[C@@H](O)[C@@H]1NC(=O)[C@H](CCCCN)NC(=O)[C@@H](Cc2c[nH]c3ccc(F)cc23)NC(=O)[C@H](Cc2ccccc2)NC(=O)[C@@H]2CCCN2C(=O)[C@H](Cc2ccccc2)NC1=O [Cyclo(Pro-Phe-D-5F-Trp-Lys-Thr-Phe)] (cyclo(FPF[dTrp(5-F)]KT))
[1]
  Growth Hormone Release Inhibition In Vitro: 2.4 (2.1-2.8)

## CC[C@@H]1NC(=O)[C@H](CCCCN)NC(=O)[C@@H](Cc2c[nH]c3ccccc23)NC(=O)[C@H](Cc2ccccc2)NC(=O)[C@@H]2CCCN2C(=O)[C@H](Cc2ccccc2)NC1=O [Cyclo(Pro-Phe-D-Trp-Lys-α-ABU-Phe)] (cyclo([Abu]FPF[dW]K))
[1]
  Growth Hormone Release Inhibition In Vitro: 0.82 (0.57-1.18)

## CC(C)C[C@@H]1NC(=O)[C@H]([C@@H](C)O)NC(=O)[C@H](CCCCN)NC(=O)[C@@H](Cc2c[nH]c3ccccc23)NC(=O)[C@H](Cc2ccccc2)NC(=O)[C@@H]2CCCN2C1=O [Cyclo(Pro-Phe-D-Trp-Lys-Thr-Leu)] (cyclo(F[dW]KTLP))
[1]
  Growth Hormone Release Inhibition In Vitro: 0.16 (0.07-0.33)

## C[C@@H](O)[C@@H]1NC(=O)[C@H](CCCN)NC(=O)[C@@H](Cc2c[nH]c3ccccc23)NC(=O)[C@H](Cc2ccccc2)NC(=O)[C@@H]2CCCN2C(=O)[C@H](Cc2ccccc2)NC1=O [Cyclo(Pro-Phe-D-Trp-Orn-Thr-Phe)] (cyclo(FPF[dW][Orn]T))
[1]
  Growth Hormone Release Inhibition In Vitro: 0.16(0.15-0.17)

## NCCCC[C@@H]1NC(=O)[C@@H](Cc2c[nH]c3ccccc23)NC(=O)[C@H](Cc2ccccc2)NC(=O)[C@@H]2CCCN2C(=O)[C@H](Cc2ccccc2)NC(=O)[C@H](CO)NC1=O [Cyclo(Pro-Phe-D-Trp-Lys-ser-Phe)] (cyclo(FPF[dW]KS))
[1]
  Growth Hormone Release Inhibition In Vitro: 1.4 (1.1-1.7)

## C[C@@H](O)[C@@H]1NC(=O)[C@H](CCCCN)NC(=O)[C@@H](Cc2c[nH]c3ccccc23)NC(=O)[C@H](Cc2ccccc2)NC(=O)[C@@H]2CCCN2C(=O)[C@H](Cc2ccccc2)NC1=O [Cyclo(Pro-Phe-D-Trp-Lys-Thr-Phe)] (cyclo(PF[dW]KTF))
[2]
  Gastric Secretion % Inhibition, Acid Concentration, 0-30: 18%
  Gastric Secretion % Inhibition, Acid Concentration, 30-60: 47%
  Gastric Secretion % Inhibition, Acid Concentration, 60-90: 54%
  Gastric Secretion % Inhibition, Acid Concentration, 90-120: 68%
  Gastric Secretion % Inhibition, Vol., 0-30: 88%
  Gastric Secretion % Inhibition, Vol., 30-60: 98%
  Gastric Secretion % Inhibition, Vol., 60-90: 95%
  Gastric Secretion % Inhibition, Vol., 90-120: 86%
[1]
  Growth Hormone Release Inhibition In Vitro: 1.71 (1.31-2.32)

## CC(C)C[C@@H]1NC(=O)[C@@H]2CCCN2C(=O)[C@H](Cc2ccccc2)NC(=O)[C@H]([C@@H](C)O)NC(=O)[C@H](CCCCN)NC(=O)[C@@H](Cc2c[nH]c3ccccc23)NC1=O [Cyclo(Pro-Leu-D-Trp-Lys-Thr-Phe)] (cyclo(FPL[dW]KT))
[1]
  Growth Hormone Release Inhibition In Vitro: 0.29 (0.13-0.57)

## C[C@@H](O)[C@@H]1NC(=O)[C@H](CCCCN)NC(=O)[C@@H](Cc2c[nH]c3ccccc23)NC(=O)[C@H](Cc2ccc(O)cc2)NC(=O)[C@@H]2CCCN2C(=O)[C@H](Cc2ccccc2)NC1=O [Cyclo(Pro-Tyr-D-Trp-Lys-Thr-Phe)] (cyclo(FPY[dW]KT))
[2]
  Gastric Secretion % Inhibition, Acid Concentration, 0-30: 30%
  Gastric Secretion % Inhibition, Acid Concentration, 30-60: 49%
  Gastric Secretion % Inhibition, Acid Concentration, 60-90: 52%
  Gastric Secretion % Inhibition, Acid Concentration, 90-120: 27%
  Gastric Secretion % Inhibition, Vol., 0-30: 67%
  Gastric Secretion % Inhibition, Vol., 30-60: 87%
  Gastric Secretion % Inhibition, Vol., 60-90: 87%
  Gastric Secretion % Inhibition, Vol., 90-120: 64%
[1]
  Growth Hormone Release Inhibition In Vitro: 14.3 (8.3-33.0)
